One assay concerns the target albumin (Homo sapiens, UniProt P02768). To be noted: literature references; cited from earlier work.
Assay [1] concerns the target in-vitro guanidylated albumin (Homo sapiens, UniProt P02768). Kind of assay: Effect of in-vitro guanidylation on protein bound fraction of albumin. The conditions noted are these: albumin 75 μmol l^−1, ligand 7.5 μmol l^−1; over time of guanidylation (0-48 h).

Each structure is given as a SMILES string.

Chain of albumin (P02768 25-609): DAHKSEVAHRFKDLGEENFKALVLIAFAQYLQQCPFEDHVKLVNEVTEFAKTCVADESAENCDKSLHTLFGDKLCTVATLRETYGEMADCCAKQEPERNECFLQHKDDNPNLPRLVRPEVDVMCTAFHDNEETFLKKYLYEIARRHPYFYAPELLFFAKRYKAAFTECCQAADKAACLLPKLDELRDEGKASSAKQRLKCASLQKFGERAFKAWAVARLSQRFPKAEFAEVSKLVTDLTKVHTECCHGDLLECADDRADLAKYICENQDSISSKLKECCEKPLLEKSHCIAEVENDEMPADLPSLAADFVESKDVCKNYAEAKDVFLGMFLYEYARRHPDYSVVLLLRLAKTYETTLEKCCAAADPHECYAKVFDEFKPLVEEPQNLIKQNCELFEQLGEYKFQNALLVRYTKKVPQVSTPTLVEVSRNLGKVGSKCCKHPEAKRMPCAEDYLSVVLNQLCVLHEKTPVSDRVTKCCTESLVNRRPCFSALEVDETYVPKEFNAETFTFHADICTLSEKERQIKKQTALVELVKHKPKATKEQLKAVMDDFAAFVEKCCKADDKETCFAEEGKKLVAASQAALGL
Chain of in-vitro guanidylated albumin (P02768 25-609): as above

On to `N[C@@H](Cc1c[nH]c2ccccc12)C(=O)O` [L-tryptophan], for which the “affinity to post-translational modified albumin as compared to indoxyl sulfate” value at albumin was “more than two orders of magnitude lower affinity”. For the same molecule, the “decrease of binding of albumin caused by in-vitro guanidylation” value in assay [1] came out at 81%.
